GI50 data for 16 molecules are collected here from patent publication US9580390B2, “Indazole compounds as kinase inhibitors and method of treating cancer with same” (University Health Network, priority 2011, dated 2017).

Like-named read-outs stand apart in the source and are kept apart here. A value given as a limit tells only on which side of the number the result lay.

Common to all, as to assay type: cell-based
One experiment has as its system TICs (Ovarian 2393A). Briefly: Ovarian tumor-initiating cell growth inhibition (Alamar Blue). Conditions: 144 h, 6 days, read-out: Tumor Initiating Cell GI50 Range Ovarain 2393A. Background: The colour change of resazurin is a common sign of viable cells or microbes.
Experiment [1] relates to ovarian cancer cells (PA-1). Nature of the experiment: Cancer cell line growth inhibition (SRB assay). The conditions noted are these: read-out: Cancer Cell Line GI50 Range PA-1.
Method: Breast cancer cells (MDA-MB-231), colon cancer cells (HCT116) and ovarian cancer cells (PA-1) were seeded (1000 to 4000 in 80 μl per well depending on the cell growth rate) into 96 well plates 24 hours before compound overlay. Compounds were prepared as 10 mM stock solutions in 100% DMSO which were diluted with DMEM (Dulbecco's Modified Eagle's Medium) cell growth Medium (Invitrogen, Burlington, ON, Canada) containing 10% FBS (Fetal Bovine Serum) to concentrations ranging from 50 nM to 250 μM. Aliquots (20 μl) from each concentration were overlaid to 80 μl of the pre-seeded cells in the 96 well plates to make final concentrations of 10 nM to 50 μM. The cells were cultured for 5 days before the Sulforhodamine B assay (SRB) was performed to determine the compound's cell growth inhibition activity.
Sulforhodamine B (purchased from Sigma, Oakville, ON, Canada) is a water-soluble dye that binds to the basic amino acids of the cellular proteins. Thus, colorimetric measurement of the bound dye provides an estimate of the total protein mass that is related to the cell number. the cells are fixed in situ by gently aspirating off the culture media and adding 50 μl ice cold 10% Trichloroacetic Acid (TCA) per well and incubate at 4° C. for 30-60 min. The plates are washed with H2O five times and allowed to air dry for 5 min. Addition of 50 μl 0.4% (w/v) SRB solution in 1% (v/v) acetic acid to each well and incubation for 30 min at RT completes the staining reaction. Following staining, plates are washed four times with 1% acetic acid to remove unbound dye and then allowed to air dry for 5 min. The stain is solubilized with 100 μl of 10 mM Tris pH 10.5 per well. Absorbance is read at 570 nm.
The percentage (%) of relative growth inhibition was calculated by comparing to DMSO treated only cells (100%). GI50's were determined for compounds with cytotoxic activity. The GI50 was calculated using GraphPad PRISM software (GraphPad Software, Inc., San Diego, Calif., USA).
Experiment [2] relates to colon cancer cells (HCT116). Briefly: Cancer cell line growth inhibition (SRB assay). Conditions: Homo sapiens, HCT-116, read-out: Cancer Cell Line GI50 Range HCT116. A general note: The SRB assay estimates cell density from bound dye.
Another experiment deals with TICs (Colon 12). Nature of the experiment: Colon tumor-initiating cell growth inhibition (Alamar Blue). Conditions: 216 h, 9 days, read-out: Tumor Initiating Cell GI50 Range Colon 12.
[3] abbreviates: PA-1 ovarian cancer cells, SRB assay.
Where [4] appears, read: HCT116 colon cancer cells, SRB assay.

From the text for TICs (Colon 12): Materials and Methods: Non-tissue or tissue cultured treated T-75 flask and 96-well plates were purchased from VWR. Vitamin B-27 supplement, MEM NEAA (minimum essential medium non essential amino acids), sodium pyruvate, L-glutamine, N2 supplement, penicillin-streptomycin and fungizone/amphotericin B were obtained from Invitrogen. Lipid mixture, heparin and EGF were purchased from Sigma; bFGF from BD Biosciences. Tumor Initiating Cells (TICs) from colon were routinely maintained using non-tissue cultured treated T-75 flasks in DMEM:F12 medium containing 0.2×B-27 supplement, 4 ug/ml heparin, 1×MEM NEAA, 1× sodium pyruvate, 1 mM glutamine, 10 pg/ul bFGF, 20 pg/ul EGF, 1×N2 supplement, lipid mixture, penicillin-streptomycin and fungizone/amphotericin B. Ovarian TICs were routinely maintained using tissue cultured treated T-75 flasks in DMEM:F12 medium containing 1×B-27 supplement, 4 ug/ml heparin, 20 pg/ul bFGF, 20 pg/ul EGF and penicillin-streptomycin.
Assay Protocol: Compounds described herein were dissolved in DMSO and further diluted in cell culture medium for GI50 determination. Colon TICs were trypsinized and seeded into non-tissue cultured treated 96-well plates with 4,000 cells/well. After 24 h, compound was added into the cell culture at different concentrations, and the final concentration of DMSO was adjusted to 0.1%. Cells were then cultured at 37° C. for 9 days. Ovarian TICs were trypsinized and seeded into tissue cultured treated 96-well plates with 1,000 cells/well. After 24 h, compound was added into the cell culture at different concentrations, and the final concentration of DMSO was adjusted to 0.1%. Cells were then cultured at 37° C. for 6 days. Cell viability was assessed by Alamar Blue assay: 10 ul of Alamar Blue was added into each well. After 4 hours incubation at 37° C., fluorescence was recorded at excitation 544 and emission 590. GI50 (Growth inhibition) was calculated using GraphPad Prism 4.0 software.

As for `O=C(N[C@H](c1ccccn1)C1CC1)c1ccc2[nH]nc(-c3ccc(OC4CCN(C5COC5)CC4)cc3)c2c1` [Example A197, (S)-N-(cyclopropyl(pyridin-2-yl)methyl)-3-(4-((1-(oxetan-3-yl)piperidin-4-yl)oxy)phenyl)-1H-indazole-5-carboxamide], the GI50 in the experiment with TICs (Ovarian 2393A) (ovarian TICs, Alamar Blue) is below 100 nM; in experiment [1] (setting [3]), below 100 nM; in experiment [2] (setting [4]), below 100 nM; in the experiment with TICs (Colon 12) (colon TICs, Alamar Blue) it was below 100 nM.

Turning to `O=CN1CCC(Oc2ccc(-c3n[nH]c4ccc(C(=O)N[C@H](c5ncccc5Cl)C5CC5)cc34)cc2)CC1` [Example A212, (S)-N-((3-chloropyridin-2-yl)(cyclopropyl)methyl)-3-(4-((1-formylpiperidin-4-yl)oxy)phenyl)-1H-indazole-5-carboxamide], the GI50 was below 100 nM in the experiment on TICs (Ovarian 2393A) (Ovarian 2393A TICs); below 100 nM in experiment [1] (Homo sapiens, PA-1); below 100 nM in experiment [2]; 100 to 500 nM with TICs (Colon 12) (Colon 12 TICs).

With `CC(C)C(NC(=O)c1ccc2[nH]nc(-c3ccc(OC4CCN(C)CC4)cc3)c2c1)c1ccccc1Cl` (stereo not shown) [Example A144, N-(1-(2-chlorophenyl)-2-methylpropyl)-3-(4-((1-methylpiperidin-4-yl)oxy)phenyl)-1H-indazole-5-carboxamide], the 50% growth inhibitory concentration (GI50) in the experiment on TICs (Ovarian 2393A) (ovarian TICs, Alamar Blue) was below 100 nM; in experiment [1] (setting [3]), below 100 nM; in experiment [2] (setting [4]), below 100 nM; in the experiment with TICs (Colon 12) (colon TICs, Alamar Blue) it was below 100 nM.

`C[C@@H](NC(=O)c1ccc2[nH]nc(-c3ccc(OC4CCN(C)CC4)cc3)c2c1)c1ccccc1F` [Example A134, (R)-N-(1-(2-fluorophenyl)ethyl)-3-(4-((1-methylpiperidin-4-yl)oxy)phenyl)-1H-indazole-5-carboxamide]: the GI50 in the experiment with TICs (Ovarian 2393A) (ovarian TICs, Alamar Blue) was above 500 nM; in experiment [1] (setting [3]) it was 100 to 500 nM; in experiment [2] (setting [4]) it was below 100 nM; in the experiment on TICs (Colon 12) (colon TICs, Alamar Blue), 100 to 500 nM.

Turning to `COc1ccccc1C(NC(=O)c1ccc2[nH]nc(-c3ccc(OC4CCN(C)CC4)cc3)c2c1)C1CC1` (stereo not shown) [Example A151, N-(cyclopropyl(2-methoxyphenyl)methyl)-3-(4-((1-methylpiperidin-4-yl)oxy)phenyl)-1H-indazole-5-carboxamide], the 50% growth inhibitory concentration (GI50) with TICs (Ovarian 2393A) (ovarian TICs, Alamar Blue) is 100 to 500 nM; in experiment [1] (setting [3]), 100 to 500 nM; in experiment [2] (setting [4]) it was below 100 nM; in the experiment with TICs (Colon 12) (colon TICs, Alamar Blue) it was 100 to 500 nM.

As for `O=CN1CCC(Oc2ccc(-c3n[nH]c4ccc(C(=O)NC(c5ccccn5)C5CC5)cc34)cc2)CC1` (stereo not shown) [Example A160, N-(cyclopropyl(pyridin-2-yl)methyl)-3-(4-((1-formylpiperidin-4-yl)oxy)phenyl)-1H-indazole-5-carboxamide], the GI50 with TICs (Ovarian 2393A) (ovarian TICs, Alamar Blue) is 100 to 500 nM; in experiment [1] (setting [3]), 100 to 500 nM; in experiment [2] (setting [4]), below 100 nM; in the experiment on TICs (Colon 12) (colon TICs, Alamar Blue), 100 to 500 nM.

On to `O=C(Nc1ccc2[nH]nc(-c3ccc(OC4CN(C5COC5)C4)cc3)c2c1)C(c1ccsc1)N1CCCC1` (stereo not shown) [Example A189, N-(3-(4-((1-(oxetan-3-yl)azetidin-3-yl)oxy)phenyl)-1H-indazol-5-yl)-2-(pyrrolidin-1-yl)-2-(thiophen-3-yl)acetamide], for which the GI50 with TICs (Ovarian 2393A) (ovarian TICs, Alamar Blue) was above 500 nM; in experiment [1] (setting [3]), below 100 nM; in experiment [2] (setting [4]), below 100 nM; in the experiment on TICs (Colon 12) (colon TICs, Alamar Blue), above 500 nM.

Turning to `CC1(O)CCN(c2ccc(-c3n[nH]c4ccc(NC(=O)C(c5ccsc5)N5CCCC5)cc34)cc2)CC1` (stereo not shown) [Example A89, N-(3-(4-(4-hydroxy-4-methylpiperidin-1-yl)phenyl)-1H-indazol-5-yl)-2-(pyrrolidin-1-yl)-2-(thiophen-3-yl)acetamide], the GI50 with TICs (Ovarian 2393A) (ovarian TICs, Alamar Blue) was 100 to 500 nM; in experiment [1] (setting [3]), below 100 nM; in experiment [2] (setting [4]) it was below 100 nM; in the experiment on TICs (Colon 12) (colon TICs, Alamar Blue) it was 100 to 500 nM.

Regarding `CN1CCC(Oc2ccc(-c3n[nH]c4ccc(C(=O)NC(c5ccccc5)C5CCOCC5)cc34)cc2)CC1` (stereo not shown) [Example A177, 3-(4-((1-methylpiperidin-4-yl)oxy)phenyl)-N-(phenyl(tetrahydro-2H-pyran-4-yl)methyl)-1H-indazole-5-carboxamide], the GI50 with TICs (Ovarian 2393A) (ovarian TICs, Alamar Blue) is 100 to 500 nM; in experiment [1] (setting [3]) it was 100 to 500 nM; in experiment [2] (setting [4]) it was below 100 nM; in the experiment with TICs (Colon 12) (colon TICs, Alamar Blue), 100 to 500 nM.

Take `O=C(NC(c1ccccc1)C1CC1)c1ccc2[nH]nc(-c3ccc(OC4CCN(C5COC5)CC4)cc3)c2c1` (stereo not shown) [Example A157, N-(cyclopropyl(phenyl)methyl)-3-(4-((1-(oxetan-3-yl)piperidin-4-yl)oxy)phenyl)-1H-indazole-5-carboxamide]: the GI50 in the experiment with TICs (Ovarian 2393A) (ovarian TICs, Alamar Blue) is 100 to 500 nM; in experiment [1] (setting [3]), 100 to 500 nM; in experiment [2] (setting [4]) it was 100 to 500 nM; with TICs (Colon 12) (colon TICs, Alamar Blue), 100 to 500 nM.

Take `O=C(Nc1ccc2[nH]nc(-c3ccc(N4CCOCC4)cc3)c2c1)C(c1ccsc1)N1CCC1` (stereo not shown) [Example A172, 2-(azetidin-1-yl)-N-(3-(4-morpholinophenyl)-1H-indazol-5-yl)-2-(thiophen-3-yl)acetamide]: the GI50 in the experiment on TICs (Ovarian 2393A) (ovarian TICs, Alamar Blue) is below 100 nM; in experiment [1] (setting [3]) it was below 100 nM; in experiment [2] (setting [4]) it was below 100 nM; in the experiment on TICs (Colon 12) (colon TICs, Alamar Blue), below 100 nM.

As for `CC(C)(O)C1CCN(c2ccc(-c3n[nH]c4ccc(C(=O)NC(c5ccccn5)C5CC5)cc34)cc2)CC1` (stereo not shown) [Example A180, N-(cyclopropyl(pyridin-2-yl)methyl)-3-(4-(4-(2-hydroxypropan-2-yl)piperidin-1-yl)phenyl)-1H-indazole-5-carboxamide], the GI50 in the experiment with TICs (Ovarian 2393A) (ovarian TICs, Alamar Blue) was 100 to 500 nM; in experiment [1] (setting [3]) it was 100 to 500 nM; in experiment [2] (setting [4]), below 100 nM; in the experiment with TICs (Colon 12) (colon TICs, Alamar Blue), 100 to 500 nM.

Take `O=C(NC(c1ccccn1)C1CC1)c1ccc2[nH]nc(-c3ccc(OC4CCN(C5COC5)CC4)cc3)c2c1` (stereo not shown) [Example A171, N-(cyclopropyl(pyridin-2-yl)methyl)-3-(4-((1-(oxetan-3-yl)piperidin-4-yl)oxy)phenyl)-1H-indazole-5-carboxamide]: the GI50 is below 100 nM in the experiment on TICs (Ovarian 2393A) (ovarian TICs, Alamar Blue); below 100 nM in experiment [1] (setting [3]); below 100 nM in experiment [2] (setting [4]); 100 to 500 nM in the experiment on TICs (Colon 12) (colon TICs, Alamar Blue).

Regarding `CN1CCC(Oc2ccc(-c3n[nH]c4ccc(C(=O)NC(c5ccccn5)C5CC5)cc34)cc2Cl)CC1` (stereo not shown) [Example A198, 3-(3-chloro-4-((1-methylpiperidin-4-yl)oxy)phenyl)-N-(cyclopropyl(pyridin-2-yl)methyl)-1H-indazole-5-carboxamide], the GI50 with TICs (Ovarian 2393A) (ovarian TICs, Alamar Blue) was 100 to 500 nM; in experiment [1] (setting [3]), 100 to 500 nM; in experiment [2] (setting [4]), below 100 nM; in the experiment with TICs (Colon 12) (colon TICs, Alamar Blue), 100 to 500 nM.

Take `CN1CCC(Oc2ccc(-c3n[nH]c4ccc(NC(=O)C(c5ccsc5)N5CCC5)cc34)cc2)CC1` (stereo not shown) [Example A191, 2-(azetidin-1-yl)-N-(3-(4-((1-methylpiperidin-4-yl)oxy)phenyl)-1H-indazol-5-yl)-2-(thiophen-3-yl)acetamide]: the GI50 in the experiment with TICs (Ovarian 2393A) (ovarian TICs, Alamar Blue) is below 100 nM; in experiment [1] (setting [3]) it was below 100 nM; in experiment [2] (setting [4]), below 100 nM; in the experiment on TICs (Colon 12) (colon TICs, Alamar Blue), 100 to 500 nM.

As for `CC(C)(O)C1CCN(c2ccc(-c3n[nH]c4ccc(NC(=O)C(c5ccsc5)N5CCC5)cc34)cc2)CC1` (stereo not shown) [Example A201, 2-(azetidin-1-yl)-N-(3-(4-(4-(2-hydroxypropan-2-yl)piperidin-1-yl)phenyl)-1H-indazol-5-yl)-2-(thiophen-3-yl)acetamide], the GI50 in the experiment on TICs (Ovarian 2393A) (ovarian TICs, Alamar Blue) is below 100 nM; in experiment [1] (setting [3]), below 100 nM; in experiment [2] (setting [4]), below 100 nM; with TICs (Colon 12) (colon TICs, Alamar Blue) it was below 100 nM.

The GI50 is the concentration giving 50% growth inhibition.
